In patent publication US8673922B2, “Azaindazole compounds” (Bristol-Myers Squibb Company, priority 2010, dated 2014):

Molecular target: T1, Human CYP17 (Homo sapiens, UniProt P05093)
T1 construct: expressed in transfected cells; host or cells: HEK2 (sic); microsomes prepared as a high-speed pellet
T1 sequence (P05093 1-508): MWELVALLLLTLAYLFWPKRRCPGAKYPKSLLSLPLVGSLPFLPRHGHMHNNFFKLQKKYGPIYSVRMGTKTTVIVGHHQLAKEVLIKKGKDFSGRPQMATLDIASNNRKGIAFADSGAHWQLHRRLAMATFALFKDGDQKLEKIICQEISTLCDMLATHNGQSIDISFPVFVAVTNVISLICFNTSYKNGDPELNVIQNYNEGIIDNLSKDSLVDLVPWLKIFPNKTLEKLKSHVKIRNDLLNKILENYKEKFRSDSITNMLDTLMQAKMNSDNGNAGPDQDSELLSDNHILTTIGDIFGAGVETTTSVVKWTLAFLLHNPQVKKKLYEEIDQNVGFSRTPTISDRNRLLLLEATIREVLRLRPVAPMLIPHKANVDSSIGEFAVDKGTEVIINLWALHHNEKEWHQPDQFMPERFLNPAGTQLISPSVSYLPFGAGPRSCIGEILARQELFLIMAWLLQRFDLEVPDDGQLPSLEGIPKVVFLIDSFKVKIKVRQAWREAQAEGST
Test: CYP17 Total SPA Assay
Type: biochemical
Conditions: microsomes from HEK2 cells stably transfected with CYP17; 3H-Pregnenolone 1 uM, NADPH 2 mM; 45 minutes at room temperature
Experimental: The assays were performed in U-bottom 384-well optiplates. The final assay volume was 15 μl prepared from 7.5 μl additions of microsomes (prepared as a high-speed pellet from homogenized HEK2 cells stably transfected with CYP17), substrates (3 H-Pregnenolone and NADPH) and test compounds in assay buffer (50 mM Potassium phosphate pH 7.2, 10% glycerol). The reaction was initiated by the combination of the microsomes and substrates in wells containing compound. The reaction was incubated at room temperature for 45 minutes and terminated by adding 7.5 μl of 0.2N HCl to each well. Following an incubation period of 10 minutes, anti-DHEA-coated SPA beads were added to the terminated reaction. The plate was sealed and incubated overnight with shaking at 4° C. The beads were allowed to settle in the plate for 1 hour and the plate read on a Topcount (Perkin-Elmer) plate reader.
Inhibition data were calculated by comparison to no enzyme control reactions for 100% inhibition and vehicle-only reactions for 0% inhibition. The final concentration of reagents in the assays are NADPH, 2 mM; 3H-Pregnenolone, 1 uM; microsomes, 1.25 ug/ml; Anti-DHEA-SPA beads (0.125 mg/well) in 0.5% Triton X-100 and DMSO, 0.05%. Dose response curves were generated to determine the concentration required inhibiting 50% of enzyme activity (IC50). Compounds were dissolved at 10 mM in dimethylsulfoxide (DMSO) and evaluated at eleven concentrations, each in duplicate. IC50 values were derived by non-linear regression analysis.
Table 5 below lists the IC50 values for the following examples of this invention measured in the Total CYP17 SPA Assay hereinabove.

| SMILES | IC50 |
| --- | --- |
| Cc1ncncc1-c1ccnc2c1cnn2-c1ccc(F)cc1 [Example 2, 1-(4-fluorophenyl)-4-(4-methylpyrimidin-5-yl)-1H-pyrazolo[3,4-b]pyridine] | 186 nM |
| Nc1ncncc1-c1ccnc2c1cnn2-c1ccccn1 [Example 72, 5-(1-(pyridin-2-yl)-1H-pyrazolo[3,4-b]pyridin-4-yl)pyrimidin-4-amine] | 525 nM |
| Nc1ncncc1-c1ccnc2c1cnn2-c1ccc(F)c(F)c1F [Example 70, 5-(1-(2,3,4-trifluorophenyl)-1H-pyrazolo[3,4-b]pyridin-4-yl)pyrimidin-4-amine] | 105 nM |
| Cc1ccncc1-c1ccnc2c1cnn2Cc1c(F)cccc1Cl [Example 55, 1-(2-chloro-6-fluorobenzyl)-4-(4-methylpyridin-3-yl)-1H-pyrazolo[3,4-b]pyridine] | 807 nM |
| OC1(c2ccncc2-c2ccnc3c2cnn3-c2ccc(F)cc2)COC1 [Example 9, 3-(3-(1-(4-fluorophenyl)-1H-pyrazolo[3,4-b]pyridin-4-yl)pyridin-4-yl)oxetan-3-ol] | 5.9 nM |
| Cc1ccncc1-c1ccnc2c1cnn2-c1ccc(C(F)(F)F)cn1 [Example 39, 4-(4-methylpyridin-3-yl)-1-(5-(trifluoromethyl)pyridin-2-yl)-1H-pyrazolo[3,4-b]pyridine] | 100 nM |
| Fc1ccc(-n2ncc3c(-c4cncnc4C(F)(F)F)ccnc32)c(F)c1 [Example 93, 1-(2,4-difluorophenyl)-4-(4-(trifluoromethyl)pyrimidin-5-yl)-1H-pyrazolo[3,4-b]pyridine] | 159 nM |
| Cc1ccncc1-c1ccnc2c1cnn2CC(F)(F)F [Example 84, 4-(4-methylpyridin-3-yl)-1-(2,2,2-trifluoroethyl)-1H-pyrazolo[3,4-b]pyridine] | 89 nM |
| Cc1ncncc1-c1ccnc2c1cnn2-c1ccc(F)cc1F [Example 64, 1-(2,4-difluorophenyl)-4-(4-methylpyrimidin-5-yl)-1H-pyrazolo[3,4-b]pyridine] | 15 nM |
| Nc1ncncc1-c1ccnc2c1cnn2-c1ccc(F)cc1 [Example 8, 5-(1-(4-fluorophenyl)-1H-pyrazolo[3,4-b]pyridin-4-yl)pyrimidin-4-amine] | 23 nM |
| Cc1ccncc1-c1ccnc2c1cnn2-c1ncccc1Br [Example 46, 1-(3-bromopyridin-2-yl)-4-(4-methylpyridin-3-yl)-1H-pyrazolo[3,4-b]pyridine] | 10 nM |
| Fc1ccc(-n2ncc3c(-c4cncnc4OCC(F)(F)F)ccnc32)cc1 [Example 106, 1-(4-fluorophenyl)-4-(4-(2,2,2-trifluoroethoxy)pyrimidin-5-yl)-1H-pyrazolo[3,4-b]pyridine] | 123 nM |
| Cc1csc(-n2ncc3c(-c4cnccc4C)ccnc32)n1 [Example 88, 4-methyl-2-(4-(4-methylpyridin-3-yl)-1H-pyrazolo[3,4-b]pyridin-1-yl)thiazole] | 622 nM |
| Nc1ncncc1-c1ccnc2c1cnn2-c1ccc(F)c(Cl)c1 [Example 96, 5-(1-(3-chloro-4-fluorophenyl)-1H-pyrazolo[3,4-b]pyridin-4-yl)-4-pyrimidinamine] | 704 nM |
| Nc1ncncc1-c1ccnc2c1cnn2-c1ccc(F)cc1F [Example 67, 5-(1-(2,4-difluorophenyl)-1H-pyrazolo[3,4-b]pyridin-4-yl)pyrimidin-4-amine] | 5.8 nM |
| Cc1ccncc1-c1ccnc2c1cnn2C1CCOCC1 [Example 33, 4-(4-methylpyridin-3-yl)-1-(tetrahydro-2H-pyran-4-yl)-1H-pyrazolo[3,4-b]pyridine] | 393 nM |
| Cc1ccncc1-c1ccnc2c1cnn2-c1cccc(S(N)(=O)=O)c1 [Example 80, 3-(4-(4-methylpyridin-3-yl)-1H-pyrazolo[3,4-b]pyridin-1-yl)benzenesulfonamide] | 18 nM |
| Fc1ccc(-n2ncc3c(-c4cncnc4C(F)(F)F)ccnc32)cc1F [Example 100, 1-(3,4-difluorophenyl)-4-(4-(trifluoromethyl)-5-pyrimidinyl)-1H-pyrazolo[3,4-b]pyridine] | 320 nM |

Tested on: cynomolgus monkeys
Test: 1-Day Cyno PK/PD Study
Type: in vivo, cynomolgus monkey
Conditions: plasma, single oral dose 1 mg/Kg in 80% PEG-400/water, monitored over 24 hours
Experimental: Example 67 was formulated in 80% PEG-400/water at a volume of 1 mL/kg of monkey at a dose of 1 mg/kg. The formulation was then dosed orally at time=0 hours and blood samples were taken over a 24 hour period to monitor for drug exposure and testosterone levels. (♦) Example 67 (nM); (▪) testosterone (ng/dL).
• Animals: All procedures involving animals and their care were conducted in conformity with the guidelines that are in compliance with the Bristol-Myers Squibb Institutional Animal Care and Use Committee. Fully mature male cynomolgus monkeys (>4 yrs of age; 5-6 kg) were from an in-house colony. All the monkeys used had chronically implanted femoral vein access ports. For oral studies, all animals were fasted overnight prior to dosing and were fed 4 hr after dosing. […] The plasma fraction was immediately separated by centrifugation (14,000 rpm, 10 min, 4° C.), frozen on dry ice, and stored at −20° C. until the samples were analyzed. • Analysis of Tested Compound: Plasma samples were thawed and treated with two volumes of acetonitrile containing internal standard. After centrifugation to remove precipitated proteins, an aliquot of supernatant was analyzed by LC/MS/MS. […]

| SMILES | testosterone levels |
| --- | --- |
| Nc1ncncc1-c1ccnc2c1cnn2-c1ccc(F)cc1F [Example 67, 5-(1-(2,4-difluorophenyl)-1H-pyrazolo[3,4-b]pyridin-4-yl)pyrimidin-4-amine] | ~30 ng/dL |
